Measured values: patent US20100144860A1, “Transglutaminase Inhibitor Comprising EGCG And A Method For Producing Thereof” (priority 2007, published 2010)

Biological target: T1, Transglutaminase 2 (Cavia cutleri, UniProt P08587)
T1 construct: purchased Sigma-Aldrich T5398
T1 sequence (P08587 1-690): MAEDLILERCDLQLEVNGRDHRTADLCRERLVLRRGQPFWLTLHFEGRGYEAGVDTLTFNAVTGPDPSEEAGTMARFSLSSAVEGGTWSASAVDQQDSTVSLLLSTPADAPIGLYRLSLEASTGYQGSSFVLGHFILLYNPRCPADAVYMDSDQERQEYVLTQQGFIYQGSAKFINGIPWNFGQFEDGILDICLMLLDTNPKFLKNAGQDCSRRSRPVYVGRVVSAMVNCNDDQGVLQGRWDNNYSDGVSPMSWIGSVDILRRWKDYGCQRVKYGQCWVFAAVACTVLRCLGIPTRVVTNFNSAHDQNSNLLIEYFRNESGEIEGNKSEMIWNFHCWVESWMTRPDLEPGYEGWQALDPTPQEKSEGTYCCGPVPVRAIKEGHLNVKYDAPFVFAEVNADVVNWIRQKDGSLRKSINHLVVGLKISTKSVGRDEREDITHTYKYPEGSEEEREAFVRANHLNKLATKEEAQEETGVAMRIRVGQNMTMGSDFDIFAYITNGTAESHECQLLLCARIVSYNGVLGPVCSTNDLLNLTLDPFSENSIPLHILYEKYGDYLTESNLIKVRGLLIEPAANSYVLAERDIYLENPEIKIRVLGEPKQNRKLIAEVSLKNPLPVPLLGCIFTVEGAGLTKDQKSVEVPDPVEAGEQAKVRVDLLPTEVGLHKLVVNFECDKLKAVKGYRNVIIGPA
Assay: In vitro assay for inhibition of transglutaminase activity ([1,4-14C] putrescine incorporation into succinylated casein)
Assay type: biochemical
Details: for activity of transglutaminase, Mean: mean of three assays, relative to DMSO control; for activity of transglutaminase, Assay 1 / activity of transglutaminase, Assay 2 / activity of transglutaminase, Assay 3: radioactivity compensated by DMSO-control group (=1.0000)
Description: To measure the inhibitory activity of EGCG which competes with putrescine, the transglutaminase-catalyzed reaction between [1,4,-^14C] putrescine and succinylated casein were observed.
Succinylated casein was purchased from Calbiochem (Cat. No. 573464), and 1 g of the powder was dissolved in 50 ml of a reaction buffer solution containing 5 mM DTT (0.1 M Tris-acetate (pH 8.0), 10 mM CaCl2, 0.15 M NaCl, 1.0 mM EDTA). This solution was stored in a deep freezer for further use. [1,4-^14C] Putrescine dihydrochloride was purchased from GE Healthcare (Cat. No. CFA301), and the stock solution was diluted with distilled water to yield a radiological dose of 5 μCi/ml. Transglutaminase 2 was purchased from Sigma-Aldrich (Cat. No. T5398), and diluted with distilled water to yield a final concentration of 1 unit/ml. EGCG (Sigma-Aldrich, Cat. No. E4143) was dissolved in DMSO at a concentration of 10 mM to prepare its stock solution, and the stock solution was diluted with DMSO to prepare solutions having various concentrations.
450 μl of succinylated casein solution and 50 μl of [1,4-^14C] putrescine dihydrochloride solution were mixed together to prepare a substrate solution. 96 μl of the reaction buffer, 3 μl of the stock solution of EGCG, and 1 μl of the stock solution of transglutaminase were mixed together to prepare each sample, followed by incubation at 37° C. for 10 min. 500 μl of the substrate solution and 100 μl of sample solution were mixed well, and the mixture was incubated at 37° C. for 2 hrs, before termination with 4.5 ml of cold (4° C.) 7.5% TCA. The final solution was stored at 4° C. for 1 hr. The TCA-precipitates were filtered through a GF/glass fiber filter, washed with 25 ml of cold 5% TCA, and dried. Radioactivity of crosslinked protein was measured using a (β-counter (Beckman Coulter), and compensated by the activity of DMSO-control group as a standard. The activity of transglutaminase was represented by the measured values. The assay was repeated three times under the same conditions, and the results are shown in the following Table 1.

`O=C(O[C@@H]1Cc2c(O)cc(O)cc2O[C@@H]1c1cc(O)c(O)c(O)c1)c1cc(O)c(O)c(O)c1` [EGCG, [2R, 3R]-2[3,4,5-trihydroxyphenyl]-3,4-dihydro-1[2H]-benzopyran-3,5,7-triol-3-[3,4,5-trihydroxybenzonate]] was tested, and the “activity of transglutaminase, Mean” value (EGCG 0.5 μM) was 0.5383, the “activity of transglutaminase, Assay 1” value (EGCG 0.5 μM) was 0.5166 and the “activity of transglutaminase, Assay 2” value (EGCG 0.5 μM) was 0.5690. The “activity of transglutaminase, Assay 3” value (EGCG 0.5 μM) was 0.5295, the “activity of transglutaminase, Mean” value (EGCG 1.0 μM) was 0.3677 and the “activity of transglutaminase, Assay 1” value (EGCG 1.0 μM) was 0.3950. For the same molecule, the “activity of transglutaminase, Assay 2” value (EGCG 1.0 μM) was 0.3873, the “activity of transglutaminase, Assay 3” value (EGCG 1.0 μM) was 0.3207 and the “activity of transglutaminase, Mean” value (EGCG 2.0 μM) was 0.2001. For the same molecule, the “activity of transglutaminase, Assay 1” value (EGCG 2.0 μM) was 0.2009, the “activity of transglutaminase, Assay 2” value (EGCG 2.0 μM) was 0.2288 and the “activity of transglutaminase, Assay 3” value (EGCG 2.0 μM) was 0.1707. For the same molecule, the “activity of transglutaminase, Mean” value (EGCG 3.0 μM) was 0.1765, the “activity of transglutaminase, Assay 1” value (EGCG 3.0 μM) was 0.1911 and the “activity of transglutaminase, Assay 2” value (EGCG 3.0 μM) was 0.1902. For the same molecule, the “activity of transglutaminase, Assay 3” value (EGCG 3.0 μM) was 0.1482, the “activity of transglutaminase, Mean” value (EGCG 5.0 μM) was 0.1064 and the “activity of transglutaminase, Assay 1” value (EGCG 5.0 μM) was 0.1246. The “activity of transglutaminase, Assay 2” value (EGCG 5.0 μM) was 0.0947, the “activity of transglutaminase, Assay 3” value (EGCG 5.0 μM) was 0.1000 and the “activity of transglutaminase, Mean” value (EGCG 10.0 μM) was 0.0879. For the same molecule, the “activity of transglutaminase, Assay 1” value (EGCG 10.0 μM) was 0.1029, the “activity of transglutaminase, Assay 2” value (EGCG 10.0 μM) was 0.0726 and the “activity of transglutaminase, Assay 3” value (EGCG 10.0 μM) was 0.0881. The “activity of transglutaminase, Mean” value (EGCG 50.0 μM) was 0.0871, the “activity of transglutaminase, Assay 1” value (EGCG 50.0 μM) was 0.0861 and the “activity of transglutaminase, Assay 2” value (EGCG 50.0 μM) was 0.0903. The “activity of transglutaminase, Assay 3” value (EGCG 50.0 μM) was 0.0849, the “inhibition of the activity of transglutaminase (in words)” value (FIG. 1, relative inhibition activities) was “inhibited in an EGCG concentration-dependent manner” and the IC50 (calculated by nonlinear regression from mean values) was 517 nM.
